Columns and labels:
Assay type in all cases: biochemical
PI3Kβ = biological target: T1, PI3Kβ (Homo sapiens, UniProt P42338); experiment: TR-FRET enzymatic activity assay, PI3Kβ; conditions: recombinant heterodimeric PI3Kβ 25-50 pM, 2× Km ATP, 30 minutes at 25°C
T1 construct: made in house
Method in brief: (§1)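 Enzymatic activity against the PI3K isoforms was measured using a time-resolved fluorescence resonance energy transfer (TR-FRET) assay.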

PI3Kδ = biological target: T2, PI3Kδ (Homo sapiens, UniProt O00329); experiment: TR-FRET enzymatic activity assay, PI3Kδ; conditions: recombinant heterodimeric PI3Kδ 25-50 pM, 2× Km ATP, 30 minutes at 25°C
T2 construct: made in house
Method in brief: as §1

PI3Kγ = biological target: T3, PI3Kγ (Homo sapiens, UniProt P48736); experiment: TR-FRET enzymatic activity assay, PI3Kγ; conditions: recombinant heterodimeric PI3Kγ 2 nM, 2× Km ATP, 30 minutes at 25°C
T3 construct: made in house
Method in brief: as §1

T1 sequence (P42338 whole entry): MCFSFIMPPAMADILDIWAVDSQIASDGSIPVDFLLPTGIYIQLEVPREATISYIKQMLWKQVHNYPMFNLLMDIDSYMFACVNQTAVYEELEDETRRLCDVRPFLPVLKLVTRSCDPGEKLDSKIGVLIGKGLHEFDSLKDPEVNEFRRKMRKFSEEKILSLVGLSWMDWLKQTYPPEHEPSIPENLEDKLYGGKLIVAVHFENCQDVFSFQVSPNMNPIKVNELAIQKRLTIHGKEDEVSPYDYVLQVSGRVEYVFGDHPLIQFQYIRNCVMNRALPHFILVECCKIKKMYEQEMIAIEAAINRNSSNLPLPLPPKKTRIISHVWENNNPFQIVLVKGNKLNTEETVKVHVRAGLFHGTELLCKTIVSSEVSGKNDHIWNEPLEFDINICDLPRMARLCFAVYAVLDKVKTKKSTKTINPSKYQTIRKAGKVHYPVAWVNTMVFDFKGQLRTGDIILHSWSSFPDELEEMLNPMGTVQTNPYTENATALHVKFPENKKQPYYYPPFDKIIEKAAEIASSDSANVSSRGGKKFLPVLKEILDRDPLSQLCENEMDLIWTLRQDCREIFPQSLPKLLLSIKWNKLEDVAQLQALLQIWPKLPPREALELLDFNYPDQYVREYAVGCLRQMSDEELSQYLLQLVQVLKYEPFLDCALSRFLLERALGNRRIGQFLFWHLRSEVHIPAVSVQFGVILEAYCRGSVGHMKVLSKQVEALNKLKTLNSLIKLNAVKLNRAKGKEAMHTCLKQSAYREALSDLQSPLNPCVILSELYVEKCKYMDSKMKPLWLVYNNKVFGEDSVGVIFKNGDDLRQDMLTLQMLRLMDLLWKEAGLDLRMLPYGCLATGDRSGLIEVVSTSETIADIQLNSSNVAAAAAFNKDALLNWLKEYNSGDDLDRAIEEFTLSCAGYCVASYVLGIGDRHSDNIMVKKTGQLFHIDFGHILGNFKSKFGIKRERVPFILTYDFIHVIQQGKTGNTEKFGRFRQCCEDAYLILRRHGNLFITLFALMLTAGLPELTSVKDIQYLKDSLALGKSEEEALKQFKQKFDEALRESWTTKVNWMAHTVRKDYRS
T1 sequence (P27986 whole entry partner): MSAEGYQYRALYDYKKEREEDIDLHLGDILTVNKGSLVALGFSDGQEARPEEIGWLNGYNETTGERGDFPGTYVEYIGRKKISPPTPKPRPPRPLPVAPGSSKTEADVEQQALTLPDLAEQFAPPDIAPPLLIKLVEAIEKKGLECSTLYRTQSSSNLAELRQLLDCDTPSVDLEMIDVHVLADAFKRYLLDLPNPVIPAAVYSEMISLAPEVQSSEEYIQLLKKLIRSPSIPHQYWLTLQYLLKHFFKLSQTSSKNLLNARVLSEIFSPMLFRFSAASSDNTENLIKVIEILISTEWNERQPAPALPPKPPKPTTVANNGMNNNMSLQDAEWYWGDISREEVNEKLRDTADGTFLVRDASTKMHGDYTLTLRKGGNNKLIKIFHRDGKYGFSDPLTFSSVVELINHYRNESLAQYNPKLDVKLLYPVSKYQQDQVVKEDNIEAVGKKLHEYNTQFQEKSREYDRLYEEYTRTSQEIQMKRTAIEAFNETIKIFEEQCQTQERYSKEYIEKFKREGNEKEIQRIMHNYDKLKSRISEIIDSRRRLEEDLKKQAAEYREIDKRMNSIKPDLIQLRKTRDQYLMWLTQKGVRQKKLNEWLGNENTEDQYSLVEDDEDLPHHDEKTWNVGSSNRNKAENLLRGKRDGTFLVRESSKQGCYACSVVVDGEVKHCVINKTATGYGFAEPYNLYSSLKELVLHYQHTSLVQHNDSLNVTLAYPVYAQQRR
T2 sequence (O00329 whole entry): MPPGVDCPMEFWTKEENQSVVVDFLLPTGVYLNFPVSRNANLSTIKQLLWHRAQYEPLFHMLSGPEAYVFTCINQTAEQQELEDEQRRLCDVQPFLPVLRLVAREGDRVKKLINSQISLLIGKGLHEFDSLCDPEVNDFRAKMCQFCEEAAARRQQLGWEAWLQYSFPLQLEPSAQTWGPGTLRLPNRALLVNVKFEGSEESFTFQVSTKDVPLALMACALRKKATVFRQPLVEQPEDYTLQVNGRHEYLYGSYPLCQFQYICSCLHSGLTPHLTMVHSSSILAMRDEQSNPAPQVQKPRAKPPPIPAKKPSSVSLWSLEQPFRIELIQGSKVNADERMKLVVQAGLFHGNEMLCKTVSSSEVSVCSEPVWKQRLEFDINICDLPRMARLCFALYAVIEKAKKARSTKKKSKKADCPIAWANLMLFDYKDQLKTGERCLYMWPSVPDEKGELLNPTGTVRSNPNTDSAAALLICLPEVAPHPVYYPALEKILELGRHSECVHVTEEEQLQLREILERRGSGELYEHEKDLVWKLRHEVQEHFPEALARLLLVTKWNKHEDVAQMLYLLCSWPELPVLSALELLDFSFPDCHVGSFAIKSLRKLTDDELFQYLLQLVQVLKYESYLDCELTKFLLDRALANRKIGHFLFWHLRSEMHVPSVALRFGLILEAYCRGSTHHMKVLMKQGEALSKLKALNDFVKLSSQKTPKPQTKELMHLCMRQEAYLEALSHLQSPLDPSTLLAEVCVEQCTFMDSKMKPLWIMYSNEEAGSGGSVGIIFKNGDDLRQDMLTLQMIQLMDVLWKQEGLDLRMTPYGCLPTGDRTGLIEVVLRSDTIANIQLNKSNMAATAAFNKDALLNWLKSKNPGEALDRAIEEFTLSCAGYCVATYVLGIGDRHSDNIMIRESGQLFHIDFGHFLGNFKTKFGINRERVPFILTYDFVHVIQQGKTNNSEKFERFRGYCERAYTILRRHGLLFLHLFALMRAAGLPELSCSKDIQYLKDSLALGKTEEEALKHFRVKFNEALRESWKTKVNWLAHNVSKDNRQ
T2 sequence (P27986 whole entry partner): as the sequence (P27986 whole entry partner) above
T3 sequence (P48736 whole entry): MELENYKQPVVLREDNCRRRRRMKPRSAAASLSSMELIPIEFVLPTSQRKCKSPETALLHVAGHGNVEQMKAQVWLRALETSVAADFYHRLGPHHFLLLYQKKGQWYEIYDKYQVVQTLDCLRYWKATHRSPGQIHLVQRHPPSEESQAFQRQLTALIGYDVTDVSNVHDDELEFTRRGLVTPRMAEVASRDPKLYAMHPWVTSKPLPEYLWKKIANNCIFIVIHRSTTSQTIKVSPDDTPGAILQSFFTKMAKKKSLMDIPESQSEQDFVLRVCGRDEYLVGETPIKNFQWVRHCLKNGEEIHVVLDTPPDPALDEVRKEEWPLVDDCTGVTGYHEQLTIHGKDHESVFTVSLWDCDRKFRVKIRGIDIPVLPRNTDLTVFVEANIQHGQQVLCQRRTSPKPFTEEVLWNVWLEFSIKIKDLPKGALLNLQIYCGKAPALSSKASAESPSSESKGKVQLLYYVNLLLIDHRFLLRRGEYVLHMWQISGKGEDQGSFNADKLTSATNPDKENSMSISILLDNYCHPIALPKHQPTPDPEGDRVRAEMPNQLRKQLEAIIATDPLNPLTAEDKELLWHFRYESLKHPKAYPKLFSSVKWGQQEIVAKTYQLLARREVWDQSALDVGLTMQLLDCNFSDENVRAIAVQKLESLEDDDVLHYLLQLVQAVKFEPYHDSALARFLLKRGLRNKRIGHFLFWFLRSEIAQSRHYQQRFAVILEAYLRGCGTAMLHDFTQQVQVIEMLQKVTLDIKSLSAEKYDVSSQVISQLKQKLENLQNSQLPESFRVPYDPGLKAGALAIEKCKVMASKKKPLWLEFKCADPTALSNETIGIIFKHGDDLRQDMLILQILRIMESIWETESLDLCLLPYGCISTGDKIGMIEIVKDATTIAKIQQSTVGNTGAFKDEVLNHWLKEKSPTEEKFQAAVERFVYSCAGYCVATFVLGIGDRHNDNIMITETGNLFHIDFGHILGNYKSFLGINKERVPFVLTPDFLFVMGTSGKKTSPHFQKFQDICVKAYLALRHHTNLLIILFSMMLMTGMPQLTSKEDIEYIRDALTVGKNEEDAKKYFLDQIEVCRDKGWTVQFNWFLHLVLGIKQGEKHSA
T3 sequence (Q8WYR1 whole entry partner): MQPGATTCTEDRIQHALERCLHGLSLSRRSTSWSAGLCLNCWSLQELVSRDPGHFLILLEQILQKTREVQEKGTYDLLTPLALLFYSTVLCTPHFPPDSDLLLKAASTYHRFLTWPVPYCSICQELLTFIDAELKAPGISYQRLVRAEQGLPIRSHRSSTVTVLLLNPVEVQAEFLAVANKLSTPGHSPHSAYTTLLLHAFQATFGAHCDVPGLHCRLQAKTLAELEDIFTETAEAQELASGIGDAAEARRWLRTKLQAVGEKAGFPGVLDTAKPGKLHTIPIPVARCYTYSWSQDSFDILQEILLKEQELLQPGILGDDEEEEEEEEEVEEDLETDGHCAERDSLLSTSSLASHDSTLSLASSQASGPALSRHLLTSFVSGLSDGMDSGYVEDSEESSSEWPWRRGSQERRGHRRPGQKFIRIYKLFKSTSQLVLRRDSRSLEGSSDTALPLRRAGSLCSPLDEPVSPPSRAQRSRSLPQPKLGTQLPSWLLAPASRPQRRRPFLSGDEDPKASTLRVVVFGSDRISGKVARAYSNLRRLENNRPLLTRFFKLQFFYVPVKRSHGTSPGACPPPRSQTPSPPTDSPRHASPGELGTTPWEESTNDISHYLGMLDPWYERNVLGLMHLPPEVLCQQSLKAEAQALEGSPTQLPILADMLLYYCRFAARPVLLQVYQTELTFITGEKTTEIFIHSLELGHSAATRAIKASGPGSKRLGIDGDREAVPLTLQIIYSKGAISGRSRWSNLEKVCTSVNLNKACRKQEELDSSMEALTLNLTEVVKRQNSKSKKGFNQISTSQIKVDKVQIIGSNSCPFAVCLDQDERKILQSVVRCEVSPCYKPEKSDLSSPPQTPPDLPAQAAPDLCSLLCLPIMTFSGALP

| Compound | IC50 (PI3Kβ) [nM] | IC50 (PI3Kδ) [nM] | IC50 (PI3Kγ) [nM] |
| --- | --- | --- | --- |
| C[C@H](Nc1ncnc2[nH]cc(Br)c12)c1nc2cccc(Cl)c2c(=O)n1N1CCNCC1 [Compound 69, (S)-2-(1-((5-bromo-7H-pyrrolo[2,3-d]pyrimidin-4-yl)amino)ethyl)-5-chloro-3-(piperazin-1-yl)quinazolin-4(3H)-one] | 3 | 1 | 7400 |
| C[C@H](Nc1ncnc2scnc12)c1nc2cccc(Cl)c2c(=O)n1N1CCNCC1 [Compound 70, (S)-5-chloro-3-(piperazin-1-yl)-2-(1-(thiazolo[5,4-d]pyrimidin-7-ylamino)ethyl)quinazolin-4(3H)-one] | 14 | 3 | > 10000 |
| C[C@H](Nc1ncnc2ccc(Cl)nc12)c1nc2cccc(Cl)c2c(=O)n1N1CCNCC1 [Compound 71, (S)-5-chloro-2-(1-((6-chloropyrido[3,2-d]pyrimidin-4-yl)amino)ethyl)-3-(piperazin-1-yl)quinazolin-4(3H)-one] | 3 | 2 | 3200 |
| C[C@H](Nc1nc(N)nc(N)c1Cl)c1nc2cccc(Cl)c2c(=O)n1N1CCNCC1 [Compound 72, (S)-5-chloro-2-(1-((2,6-diamino-5-chloropyrimidin-4-yl)amino)ethyl)-3-(piperazin-1-yl)quinazolin-4(3H)-one] | 28 | 11 | > 10000 |
| C[C@H](Nc1ncnc2cccnc12)c1nc2cccc(Cl)c2c(=O)n1N1CCNCC1 [Compound 73, (S)-5-chloro-3-(piperazin-1-yl)-2-(1-(pyrido[3,2-d]pyrimidin-4-ylamino)ethyl)quinazolin-4(3H)-one] | 19 | 8 | > 10000 |
| CC(C)C[C@H](Nc1ncnc(N)c1C#N)c1nc2cccc(Cl)c2c(=O)n1N1CCNCC1 [Compound 74, (S)-4-amino-6-((1-(5-chloro-4-oxo-3-(piperazin-1-yl)-3,4-dihydroquinazolin-2-yl)-3-methylbutyl)amino)pyrimidine-5-carbonitrile] | 570 | 32 | > 10000 |
| CC(C)C[C@H](Nc1nc(N)nc(N)c1C#N)c1nc2cccc(Cl)c2c(=O)n1N1CCNCC1 [Compound 75, (S)-2,4-diamino-6-((1-(5-chloro-4-oxo-3-(piperazin-1-yl)-3,4-dihydroquinazolin-2-yl)-3-methylbutyl)amino)pyrimidine-5-carbonitrile] | 37 | 15 | > 10000 |
| C[C@H](Nc1ncnc(N)c1C#N)c1nc2c(Cl)ccc(Cl)c2c(=O)n1N1CCNCC1 [Compound 76, (S)-4-amino-6-((1-(5,8-dichloro-4-oxo-3-(piperazin-1-yl)-3,4-dihydroquinazolin-2-yl)ethyl)amino)pyrimidine-5-carbonitrile] | 25 | 2 | > 10000 |
| N#Cc1c(N)nc(N)nc1N[C@H](c1nc2cccc(Cl)c2c(=O)n1N1CCNCC1)C1CC1 [Compound 77, (S)-2,4-diamino-6-(((5-chloro-4-oxo-3-(piperazin-1-yl)-3,4-dihydroquinazolin-2-yl)(cyclopropyl)methyl)amino)pyrimidine-5-carbonitrile] | 1 | 1 | 2900 |
| O=c1c2c(Cl)cccc2nc([C@@H](Nc2ncnc3scnc23)C2CC2)n1N1CCNCC1 [Compound 78, (S)-5-chloro-2-(cyclopropyl(thiazolo[5,4-d]pyrimidin-7-ylamino)methyl)-3-(piperazin-1-yl)quinazolin-4(3H)-one] | 18 | 2 | > 10000 |
| CC[C@H](Nc1ncnc(N)c1C#N)c1nc2cccc(Cl)c2c(=O)n1N1CCNCC1 [Compound 79, (S)-4-amino-6-((1-(5-chloro-4-oxo-3-(piperazin-1-yl)-3,4-dihydroquinazolin-2-yl)propyl)amino)pyrimidine-5-carbonitrile] | 78 | 7 | > 10000 |
| CC[C@H](Nc1ncnc2scnc12)c1nc2cccc(Cl)c2c(=O)n1N1CCNCC1 [Compound 80, (S)-5-chloro-3-(piperazin-1-yl)-2-(1-(thiazolo[5,4-d]pyrimidin-7-ylamino)propyl)quinazolin-4(3H)-one] | 25 | 4 | > 10000 |
| C[C@H](Nc1ncnc2cccnc12)c1nc2cccc(Cl)c2c(=O)n1C1CCCNCC1 (stereo partly drawn) [Compound 81, 3-(azepan-4-yl)-5-chloro-2-((S)-1-(pyrido[3,2-d]pyrimidin-4-ylamino)ethyl)quinazolin-4(3H)-one] | 520 | 35 | > 10000 |
| C[C@H](Nc1ncnn2ccnc12)c1nc2cccc(Cl)c2c(=O)n1C1CCCNCC1 (stereo partly drawn) [Compound 82, 3-(azepan-4-yl)-5-chloro-2-((S)-1-(imidazo[2,1-f][1,2,4]triazin-4-ylamino)ethyl)quinazolin-4(3H)-one] | 480 | 22 | > 10000 |
| C[C@H](Nc1ncnc(N)c1C#N)c1nc2cccc(Cl)c2c(=O)n1C1CCCNC1 (stereo partly drawn) [Compound 83, 4-amino-6-(((1S)-1-(5-chloro-4-oxo-3-(piperidin-3-yl)-3,4-dihydroquinazolin-2-yl)ethyl)amino)pyrimidine-5-carbonitrile] | 270 | 8 | > 10000 |
| C[C@H](Nc1ncnc(N)c1C#N)c1nc2cccc(Cl)c2c(=O)n1C1CCCNCC1 (stereo partly drawn) [Compound 84, 4-amino-6-(((1S)-1-(3-(azepan-4-yl)-5-chloro-4-oxo-3,4-dihydroquinazolin-2-yl)ethyl)amino)pyrimidine-5-carbonitrile] | 32 | 2 | > 10000 |
| C[C@H](Nc1ncnc(N)c1C#N)c1nc2cccc(Cl)c2c(=O)n1C1CCNC1 (stereo partly drawn) [Compound 85, 4-amino-6-(((1S)-1-(5-chloro-4-oxo-3-(pyrrolidin-3-yl)-3,4-dihydroquinazolin-2-yl)ethyl)amino)pyrimidine-5-carbonitrile] | 160 | 7 | > 10000 |
| C[C@H](Nc1ncnc(N)c1C#N)c1nc2cccc(Cl)c2c(=O)n1C1CCNCC1 [Compound 86, (S)-4-amino-6-((1-(5-chloro-4-oxo-3-(piperidin-4-yl)-3,4-dihydroquinazolin-2-yl)ethyl)amino)pyrimidine-5-carbonitrile] | 83 | 3 | > 10000 |
| CC[C@H](Nc1nc(N)nc(N)c1C#N)c1nc2cccc(Cl)c2c(=O)n1N1CCN(Cc2ccc(C(F)(F)F)cc2)CC1 [Compound 87, (S)-2,4-diamino-6-((1-(5-chloro-4-oxo-3-(4-(4-(trifluoromethyl)benzyl)piperazin-1-yl)-3,4-dihydroquinazolin-2-yl)propyl)amino)pyrimidine-5-carbonitrile] | 10000 | 57 | > 10000 |
| CC(C)N1CCN(n2c([C@H](C)Nc3nc(N)nc(N)c3C#N)nc3cccc(Cl)c3c2=O)CC1 [Compound 88, (S)-2,4-diamino-6-((1-(5-chloro-3-(4-isopropylpiperazin-1-yl)-4-oxo-3,4-dihydroquinazolin-2-yl)ethyl)amino)pyrimidine-5-carbonitrile] | 120 | 54 | 5800 |
| CC[C@H](Nc1nc(N)nc(C)c1C#N)c1nc2cccc(Cl)c2c(=O)n1N1CCN(Cc2ccc(C(F)(F)F)cc2)CC1 [Compound 89, (S)-2-amino-4-((1-(5-chloro-4-oxo-3-(4-(4-(trifluoromethyl)benzyl)piperazin-1-yl)-3,4-dihydroquinazolin-2-yl)propyl)amino)-6-methylpyrimidine-5-carbonitrile] | 4500 | 50 | > 10000 |
| CC[C@H](Nc1nc(N)nc(C)c1C#N)c1nc2cccc(Cl)c2c(=O)n1N1CCN(Cc2ccc(F)cc2)CC1 [Compound 90, (S)-2-amino-4-((1-(5-chloro-3-(4-(4-fluorobenzyl)piperazin-1-yl)-4-oxo-3,4-dihydroquinazolin-2-yl)propyl)amino)-6-methylpyrimidine-5-carbonitrile] | 52 | 23 | 2000 |
| CC[C@H](Nc1nc(N)nc(N)c1C#N)c1nc2cccc(Cl)c2c(=O)n1N1CCN(Cc2ccc(F)cc2)CC1 [Compound 91, (S)-2,4-diamino-6-((1-(5-chloro-3-(4-(4-fluorobenzyl)piperazin-1-yl)-4-oxo-3,4-dihydroquinazolin-2-yl)propyl)amino)pyrimidine-5-carbonitrile] | 59 | 22 | 930 |
| CC[C@H](Nc1nc(N)nc(N)c1C#N)c1nc2cccc(Cl)c2c(=O)n1N1CCN(Cc2ccc(OC)cc2)CC1 [Compound 92, (S)-2,4-diamino-6-((1-(5-chloro-3-(4-(4-methoxybenzyl)piperazin-1-yl)-4-oxo-3,4-dihydroquinazolin-2-yl)propyl)amino)pyrimidine-5-carbonitrile] | 41 | 27 | 1400 |
| N#Cc1c(N)nc(N)nc1N[C@H](c1nc2cccc(Cl)c2c(=O)n1N1CCN(Cc2ccccc2)CC1)C1CC1 [Compound 93, (S)-2,4-diamino-6-(((3-(4-benzylpiperazin-1-yl)-5-chloro-4-oxo-3,4-dihydroquinazolin-2-yl)(cyclopropyl)methyl)amino)pyrimidine-5-carbonitrile] | 48 | 18 | 1300 |
| CC[C@H](Nc1nc(N)nc(N)c1C#N)c1nc2cccc(Cl)c2c(=O)n1N1CCN(Cc2ccccc2)CC1 [Compound 94, (S)-2,4-diamino-6-((1-(3-(4-benzylpiperazin-1-yl)-5-chloro-4-oxo-3,4-dihydroquinazolin-2-yl)propyl)amino)pyrimidine-5-carbonitrile] | 56 | 32 | 2900 |

Source: patent EP3154958B1, “PHOSPHATIDYLINOSITOL 3-KINASE INHIBITORS” (Gilead Sciences, Inc., priority 2014, dated 2015)
